Test results from patent publication US20120142730A1 (priority 2010, published 2012).
Where two headings read alike, the source gives them in different places.

What was measured:
[1] = test system: subjects with relapsing remitting multiple sclerosis (RRMS); experiment: ALLEGRO phase III trial: patient-reported fatigue (MFIS), SF-36 and EQ5D; format: in vivo, human
Procedure: Eligible subjects were equally randomized 1:1 into one of the following treatment arms: • 1. […] 21, 2007 (see, page 10, line 5 to page 11, line 3). • 2. Matching placebo for laquinimod arm: one capsule is administered once daily. The following assessments were performed at specified time points: • 1. Vital signs were measured at each study visit. • 2. A physical examination is performed at months −1 (screening), (baseline) 1, 3, 6, 12, 18 and 24 (termination/early discontinuation core study). In case of the 6 months extended study, additional examination was performed at month 30 (termination/early discontinuation of extended study). • 3. The following safety clinical laboratory tests were performed: • a. Complete blood count (CBC) with differential—at all scheduled visits. A reticulocyte count was added to the CBC at months 0 (baseline) and 24/30 (termination/early discontinuation). • b. Serum chemistry (including electrolytes, liver enzymes, direct and total bilirubin and pancreatic amylase and CPK), and urinalysis—at all scheduled visits. • c. A rapid urine β-hCG test was performed in women of child-bearing potential at baseline (month 0) and at each scheduled study visit thereafter (at site). • d. β-hCG in women of child-bearing potential was performed at all scheduled visits. • e. Starting after visit Month 3 a rapid urine β-hCG test was performed in women of child-bearing potential every 28 (±2) days. The subject was contacted by telephone within 72 hours after the test was scheduled to be performed and asked specific questions regarding the test. In case of suspected pregnancy (positive urine β-hCG test result), the caller made sure that the study drug has been discontinued and the subject was instructed to arrive at the site as soon as possible with all study drugs. • 4. Markers of inflammation (serum conventional C-reactive protein and fibrinogen)—at screening, baseline and all scheduled visits thereafter. • 5. During the first 3 months periodical phone calls were placed by the site personnel every two weeks. […] ECG was performed at months −1 (screening; additional recording, up to 30 minutes apart is performed if QTc is […] 450 msec), (baseline; three recordings, 15 minutes apart), 1, 2, 3, 6, 12, 18 and 24 (termination/early discontinuation). In case of the 6 months extended study, ECG is performed at month 30 (termination/early discontinuation of the extended study). • 7. Chest X-ray is performed at months −1 (screening), (if not performed within 7 months prior to the screening visit). • 8. Adverse Events (AEs) are monitored throughout the study. • 9. Concomitant medications are monitored throughout the study. • 10. Neurological evaluations, including Expanded Disability Status Scale (EDSS), 25 foot walk test/Ambulation Index (AI), Functional systems (FS) are performed at months −1 (screening), (baseline) and every 3 months during the study and the extended study period. • 11. MS functional Composite (MSFC) was assessed at months −1 (screening) (three practices for training purposes only), at month 0 (baseline), 6, 12, 18 and 24 (termination/early discontinuation). In case of the 6 months extended study, the last MSFC was performed at months 30 (termination/early discontinuation of the extended study). • 12. Subject-reported fatigue was assessed by the Modified Fatigue Impact Scale (MFIS) at months 0, 6, 12, 18, and 24 (termination/early discontinuation). In case of the 6 months extended study, additional MFIS was performed at month 30 (termination/early discontinuation of the extended study). • 13. The general health status was assessed by the EuroQoL (EQ5D) questionnaire at month 0 (baseline) and month 24 (termination/early discontinuation of the study). In case of the 6 months extended study, the last EuroQoL (EQ5D) was performed at month 30 (termination/early discontinuation of the extended study) instead of month 24. • 14. […]

[2] = test system: relapsing MS; settings: cited from earlier work; for Development of active MRI lesions in relapsing MS: Polman, 2005
[3] = 0.6 mg daily oral, listed as laquinimod

Q: For `CCN(C(=O)c1c(O)c2c(Cl)cccc2n(C)c1=O)c1ccccc1` [Laquinimod, laquinimod], which “EQ-5D dimensions, health status at Month 24, words” value ([1]; 0.6 mg daily oral) is on record?
A: 0.6 mg maintained their health status at Month 24 while those treated with placebo reported a

Q: And the “MFIS (Modified Fatigue Impact Scale) adjusted mean score at 24 months” value ([1]; 0.6 mg daily oral)?
A: 31.9

Q: And the “SF36 Mental component summary, treatment effect” value ([1]; 0.6 mg daily oral vs placebo)?
A: 1.848

Q: What about the MFIS treatment effect ([1]; 0.6 mg daily oral vs placebo, month 24, p=0.004) of the same compound?
A: −2.53

Q: What about the “EQ5D, effect” value ([1]; 0.6 mg daily oral vs placebo, p 0.0267) of the same compound?
A: −2.366

Q: And the “SF36 Physical component summary, effect” value ([1]; 0.6 mg daily oral vs placebo, p 0.1354)?
A: 0.65

Q: And the “SF36 Mental component summary, treatment effect” value ([1]; 0.6 mg daily oral vs placebo, listed as laquinimod)?
A: 1.68

Q: And the “EQ5D General Health Status by the Euroqol Questionnaire” value ([1]; 0.6 mg daily oral, month 24)?
A: 71.0

Q: What about the “SF36 - SFMHD Mental component summary” value ([1]; 0.6 mg daily oral, month 24) of the same compound?
A: −0.47

Q: What about the “SF36 - SFPHD Physical component summary” value ([1]; 0.6 mg daily oral, month 24) of the same compound?
A: −0.519

Q: What about the “MFIS (Modified Fatigue Impact Scale) adjusted mean score at 24 months” value [1, 3] of the same compound?
A: 31.9 (0.71)

Q: What about the “SF-36 PCS score over 24 months, words” value [1, 3] of the same compound?
A: The PCS score at Month 24 for those treated with laquinimod 0.6 mg remained stable while the

Q: And the “Functional disability due to fatigue (MFIS), words” value ([1]; 0.6 mg vs placebo at Month 24)?
A: average, associated with less functional disability due to fatigue than placebo at Month 24

Q: And the “Change in adjusted mean MFIS psychosocial subscale score from baseline” value ([1]; at 12 months, p=0.02)?
A: significant improvement

Q: And the “Change in adjusted mean MFIS physical subscale score from baseline” value ([1]; at 24 months, p=0.02)?
A: significant improvement

Q: What about the “Change in adjusted mean MFIS cognitive subscale score from baseline” value ([1]; at 24 months, p=0.05) of the same compound?
A: significant improvement

Q: And the “SF-36 PCS subscale role physical” value ([1]; over 24 months vs placebo, p=0.010)?
A: showed improvement

Q: What about the “SF-36 PCS subscale physical functioning” value ([1]; over 24 months vs placebo, p=0.016) of the same compound?
A: showed improvement

Q: And the “SF-36 PCS difference from placebo, words” value ([1]; over 24 months, p=0.13)?
A: did not reach statistical significance

Q: What about the “EQ-5D Anxiety or Depression, effect” value ([1]; vs placebo, Month 24, p 0.0113) of the same compound?
A: 1.425

Q: And the “EQ-5D Mobility, effect” value ([1]; vs placebo, Month 24, p 0.0181)?
A: 1.497

Q: What about the “EQ-5D Self care, effect” value ([1]; vs placebo, Month 24, p 0.0337) of the same compound?
A: 2.251

Q: What about the “EQ-5D Usual activities, effect” value ([1]; vs placebo, Month 24, p 0.4051) of the same compound?
A: 1.129

Q: What about the “EQ-5D Pain discomfort, effect” value ([1]; vs placebo, Month 24, p 0.8024) of the same compound?
A: 1.036

Q: And the “MRI and clinical effect as compared to placebo” value ([2]; 0.3 mg/day oral dose, Comi, 2007)?
A: neither MRI nor clinical effect

Q: And the “Development of active MRI lesions in relapsing MS” value ([2]; 0.3 mg/day oral dose)?
A: reduce development of active MRI lesions

Q: What about the “Development of active MRI lesions in relapsing MS” value [2] of the same compound?
A: reduce development of active MRI lesions
